Data on 82 compounds can be found in PubChem BioAssay AID1645864 (Buhrlage Lab, Dana-Farber Cancer Institute and Novartis …, 2021).

By IC50 is commonly meant the concentration at which inhibition is half-maximal.

SMILES strings stand for the structures. Calls of active or inactive are those of the source.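 How the source made its calls: active means maximal inhibition of USP17 at or above 30% in the confirmation dose-response, a value not among the printed readouts; inactive means the rest.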 Where only a bound is given, the exact number is not on record here.

In the test the target is Ubiquitin carboxyl-terminal hydrolase 17-like protein 5 (Homo sapiens) (UniProt A8MUK1). The test can be described thus: ubiquitin-specific protease 17 inhibitors, concentration series, biochemical, verification of primary actives (AID 1645864). The note with it: purified USP17, ubiquitin-rhodamine cleavage fluorescence, 3 h.
Sequence of Ubiquitin carboxyl-terminal hydrolase 17-like protein 5 (Homo sapiens) (A8MUK1 whole entry, looked up): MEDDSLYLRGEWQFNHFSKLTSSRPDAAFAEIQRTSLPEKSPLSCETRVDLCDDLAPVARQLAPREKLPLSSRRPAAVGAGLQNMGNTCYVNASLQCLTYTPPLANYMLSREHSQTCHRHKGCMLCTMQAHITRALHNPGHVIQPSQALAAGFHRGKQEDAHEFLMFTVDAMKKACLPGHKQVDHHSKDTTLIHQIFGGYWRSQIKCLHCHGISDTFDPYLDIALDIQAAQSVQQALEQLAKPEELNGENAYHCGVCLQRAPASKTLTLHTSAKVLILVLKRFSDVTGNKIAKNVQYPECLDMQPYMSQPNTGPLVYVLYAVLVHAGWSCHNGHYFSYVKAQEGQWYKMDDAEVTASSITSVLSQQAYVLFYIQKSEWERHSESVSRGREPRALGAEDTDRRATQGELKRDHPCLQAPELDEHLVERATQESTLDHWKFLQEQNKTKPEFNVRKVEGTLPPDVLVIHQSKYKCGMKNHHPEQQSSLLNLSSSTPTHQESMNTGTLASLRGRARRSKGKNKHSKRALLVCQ
In the case of `Cc1cc(NC(=O)Cn2c(=O)n(CCCCC(=O)NCc3ccco3)c(=O)c3ccccc32)ccc1Br`, the half-inhibitory concentration (IC50) was 2.84 µM. The value for `CN1C(=O)[C@@]23C[C@]4([C@@]56C[C@]78SS[C@](CO)(C(=O)N7[C@@H]5Nc5ccccc56)N(C)C8=O)c5ccccc5N[C@@H]4N2C(=O)[C@]1(CO)SS3` was > 50 µM (inactive); that for `CCN(c1ccc(NC(=O)CSc2nnc(-c3ccccc3)n2-c2ccc(OC)c(OC)c2)cc1)C(C)C` was 5.06 µM; that for `Cc1ccc(NC(=O)Cc2nnc3c(-c4nc(C5CC5)no4)cccn23)cc1` was 4.85 µM. The same measure for `CC(=O)c1ccc(N2C(=O)N(Cc3cccc([N+](=O)[O-])c3)c3ccccc3S2(=O)=O)cc1`: > 50 µM (inactive); for `CC(C)OC(=O)c1cc2c(ccn2C)n1CC(=O)N1CCN(C(=O)c2ccco2)CC1`: > 50 µM (inactive).

As to `CC(=O)c1oc2nc3c(c(-c4ccc(Cl)cc4)c2c1N)CCc1ccccc1-3`, the IC50 is > 50 µM (inactive). `Cc1cccc(NC(=O)CN2C(=O)CC(c3ccccc3)S(=O)(=O)c3ccccc32)c1C` (configuration not stated): the IC50 is 25.3 µM.

As for `Oc1sc(C=Nc2cc(Cl)ccc2Cl)c2ccccc12`, the IC50 is 1.46 µM. Turning to `CC(C)c1nc2sc3c(N(CCO)CCO)ncnc3c2c2c1COC(C)(C)C2`, the IC50 was > 50 µM (inactive). The value for `O=C1CC(C(=O)Nc2ccccc2Cl)n2nc(-c3ccccc3)cc2N1` (configuration not stated) was 28.7 µM. The value for `O=c1c2ccccc2oc2nc(-c3cccs3)n(-c3ccccc3)c(=O)c12` was 2.67 µM; that for `Cn1ccc2c(cc(C(=O)NCCC3=CCCCC3)n2C)c1=O` was > 50 µM (inactive). Turning to `COc1cc(OC)cc(-n2c(=O)c3sccc3n(CC(=O)c3ccc(F)cc3)c2=O)c1`, the IC50 is 26.1 µM. The value for `COc1ccc(CNC(=O)Nc2cccc3ccccc23)cc1` was 9.93 µM; that for `Cc1c(C)n(-c2ccccc2)c2ncn(CC(=O)NC(C)c3ccccc3)c(=O)c12` (configuration not stated) was 22.5 µM. The same measure for `O=C(Cn1nc2ccc(C(=O)NCc3ccccc3)cn2c1=O)Nc1ccc2c(c1)OCO2`: 45.1 µM; for `COc1cccc(NC(=O)c2ccc(F)cc2Cl)c1`: > 50 µM (inactive); for `Cc1ccnc(NC(=O)c2ccn(COc3ccc(Cl)cc3)n2)c1`: 24.2 µM.

With `O=C(NCc1ccccc1)c1ccc(-c2ccc(N3CCCC3)nn2)cc1`, the IC50 was > 50 µM (inactive). The value for `Cc1nnc(C(=O)Nc2ccc(C(=O)NCc3ccccc3C)cc2)s1` was 27.2 µM; that for `O=C(COc1ccc(F)cc1)Nc1cc(F)c2nc(N3CCOCC3)ccc2c1` was 4.34 µM; that for `Cc1nc(-c2ccccn2)sc1C(=O)Nc1ccc(C#N)cc1` was > 50 µM (inactive). In the case of `Cc1ccc2nc(NC(=O)C3CCCN3S(=O)(=O)c3ccc4c(c3)OCCO4)sc2c1` (configuration not stated), the IC50 is > 50 µM (inactive). The same measure for `COc1ccccc1S(=O)(=O)N1CC[C@@H]2CN(C)[C@@H]2C1`: 32.2 µM. The same measure for `Cc1ccccc1NC(=O)Cn1cc(-c2nc(C3CC3)no2)ccc1=O`: > 50 µM (inactive); for `c1ccc2c(Cc3nc(-c4ccncc4)no3)cccc2c1`: > 50 µM (inactive); for `CC(=O)C1=C(O)[C@]2(O)C(=O)c3c(c(C)c4ccc(C)c(O)c4c3O)C[C@H]2[C@@H](N)C1=O`: 1.14 µM. The same measure for `CCc1ccccc1NC(=O)c1cc(-c2ccccn2)n[nH]1`: 31 µM; for `CCCCn1c(=O)c(CCC(=O)OCC(=O)Nc2ccc3c(c2)OCCO3)nc2ccccc21`: > 5 µM (inactive). Regarding `O=c1[nH]c(C2CCN(S(=O)(=O)c3ccc(S(=O)(=O)NC4CCCCC4)cc3)CC2)nc2c1nnn2Cc1c(F)cccc1Cl`, the half-inhibitory concentration (IC50) is 22.1 µM. On to `CC(=O)Nc1cc(-c2cccc(O)c2)cn2c(-c3cnn(C)c3)cnc12`, for which the IC50 was 3.57 µM. For the compound `CC1OC2CC(O)C1(O)C1=C2C(O)=C(C(N)=O)C(=N)C1=O` (configuration not stated), the concentration for half-maximal inhibition (IC50) is 2.06 µM. Take `O=C(CSc1nc2cc(S(=O)(=O)Nc3ccccc3Cl)ccc2o1)Nc1ccc(N2CCOCC2)cc1`: the half-inhibitory concentration (IC50) is 48 µM. The value for `CCCC(=O)Nc1nc2ccc(CCC(=O)NCc3ccc(F)cc3)cc2s1` was 25 µM; that for `Cc1cccc(Cl)c1NC(=O)Nc1ccc(NC(=O)c2ccccc2O)cc1` was 35.4 µM. The value for `CC[C@@]1(O)C[C@H](OC2CC(N(C)C)C(OC3CC(O)C(OC4CCC(=O)C(C)O4)C(C)O3)C(C)O2)c2c(cc3c(c2O)C(=O)c2c(O)ccc(O)c2C3=O)[C@H]1C(=O)OC` (some centres not stated) was 2.51 µM; that for `CC(C)(C)C(=O)C1C2C(=O)N(Cc3ccccc3)C(=O)C2C2c3ccccc3C=CN12` (configuration not stated) was > 50 µM (inactive).

As to `CCOc1ccc(S(=O)(=O)Nc2ccc[nH]c2=O)cc1`, the IC50 was > 50 µM (inactive). The same measure for `O=C1c2c(O)cccc2C2(Oc3cccc4cccc(c34)O2)C2OC12` (configuration not stated): 10.1 µM; for `Cn1c(=O)[nH]c(=O)c2c1nc1n(CCc3ccccc3)c(-c3ccccc3)cn21`: 33.1 µM. On to `CSc1ccc(CNC(=O)CC2CCN(S(=O)(=O)c3ccc(C)cc3)CC2)cc1`, for which the IC50 was 23.7 µM. In the case of `O=C(COc1ccc(F)cc1)Nc1cnc(-c2ccc(Cl)cc2)nc1`, the half-maximal inhibitory concentration (IC50) is 24 µM. The value for `C=C(NC(=O)C(=C)NC(=O)c1csc(-c2ccc3c(n2)-c2csc(n2)-c2csc(n2)C(C(C)C2CO2)NC(=O)C(Cc2ccc(O)cc2)NC(=O)c2csc(n2)C(C(O)c2ccccc2)NC(=O)c2nc(sc2C)C(CC(N)=O)NC(=O)c2csc-3n2)n1)C(=O)O` (configuration not stated) was 26.7 µM; that for `Cc1c(C(=O)c2ccccc2)c2ccccn2c1CCc1ccccn1` was > 50 µM (inactive); that for `O=C(Nc1ccc(F)cc1F)c1csc(-c2ccccc2)n1` was 39.2 µM. Consider `CCOC(=O)c1ccc(NC(=O)c2cnc(N3CCOCC3)nc2)cc1`, for which the IC50 is > 5 µM (inactive). For `CC(C)CCCCCCCCCCC(=O)N(C)[C@H](CO)C(=O)N[C@H](C)C(=O)NCC(=O)N(C)C1C(=O)N[C@@H](C)C(=O)NC(C(=O)O)Cc2ccc(O)c(c2)-c2cc1ccc2O` (some centres not stated), the IC50 was > 50 µM (inactive). The value for `O=C(/C=C/c1ccc2c(c1)OCO2)Nc1nc2c(s1)COCC2` was 17.4 µM; that for `N#Cc1ccc(Cn2nnc(-c3cccc(Cl)c3)n2)cc1` was > 50 µM (inactive); that for `O=C(c1cn(-c2cccc(F)c2)nn1)N1CCc2ccccc2C1` was 18.5 µM.

As for `Cc1ccc(Cn2c(=O)c3ccccc3n3c(CCC(=O)N4CCN(c5ccccn5)CC4)nnc23)cc1`, the IC50 is 11.8 µM. In the case of `Cc1c(C)n(-c2ccc(Br)cn2)c2ncnc(NCCCO)c12`, the concentration for half-maximal inhibition (IC50) is 49.9 µM. The value for `COc1cc(NC(=O)c2cc(CN3CCOCC3)on2)cc(OC)c1` was > 50 µM (inactive). For the compound `COc1cc2c(oc(=O)c3cc(C)cc(OC)c32)c2c([C@@H]3OC(C)[C@@H](O)[C@@](C)(O)C3O)ccc(O)c12` (some centres not stated), the IC50 is 24.4 µM. The value for `COC(=O)C1C(c2ccc(OC)cc2)C2(C(=O)c3ccccc3C2=O)C2C=Cc3ccccc3N12` (configuration not stated) was > 50 µM (inactive); that for `COc1cccc2cc(C(=O)Nc3nc(-c4ccncc4)cs3)oc12` was 0.17 µM.

With `O=C(COC(=O)c1cc(Cl)c2c(c1)OCO2)Nc1ccc2[nH]c(=O)[nH]c2c1`, the concentration for half-maximal inhibition (IC50) was 4.92 µM. For the compound `Cc1ccc2[nH]cc(S(=O)(=O)c3ccc(C)c(F)c3)c(=O)c2c1`, the IC50 is 42.8 µM. `COc1ccc(N(CC(=O)Nc2cccc(F)c2)S(=O)(=O)c2ccc(OC)c(OC)c2)cc1`: the 50% inhibitory concentration (IC50) was 25.3 µM.

For the compound `COc1ccccc1/C=C/C(=O)Nc1nc2n(n1)C(c1ccc(Cl)cc1)CC(=O)N2` (configuration not stated), the IC50 is > 50 µM (inactive). Take `COC(=O)C1C(c2ccc(Cl)cc2Cl)C2(C(=O)c3ccccc3C2=O)C2C=Cc3ccccc3N12` (configuration not stated): the IC50 was > 50 µM (inactive). The value for `Cn1c2ccccc2c(=O)c2c(=O)n(Cc3ccccc3)c(-c3ccccc3F)nc21` was 0.127 µM; that for `COc1ccc(C(C(=O)NCc2ccccc2)N(C(=O)CCN2CCc3ccccc32)c2ccc(C)c(C)c2)cc1` (configuration not stated) was > 50 µM (inactive). In the case of `COc1ccc(Cl)c(NC(=O)C2CC(=O)Nc3cc(-c4ccccc4)nn32)c1` (configuration not stated), the IC50 is 23.5 µM.

`Cc1ccc(NC(=O)c2cnc(N3CCOCC3)nc2)cc1F`: the half-inhibitory concentration (IC50) was 28.6 µM. On to `COC1=CC(=O)c2c(O)c3c(c(C)c2C1=O)C[C@@]1(O)[C@H](O[C@H]2CC[C@H](O[C@H]4C[C@@](C)(O)[C@H](OC(=O)c5c(C)ccc(C)c5O)[C@H](C)O4)[C@@H](C)O2)C(=O)C(C(C)=O)=C(O)[C@@]1(O)C3=O`, for which the IC50 was 1.34 µM. The value for `N#Cc1cccc(NC(=O)Nc2cccn(Cc3ccccc3F)c2=O)c1` was 21 µM; that for `Cc1ccccc1C(=O)NCCn1cc(SCC(=O)Nc2ccc3c(c2)OCCO3)c2ccccc21` was > 50 µM (inactive); that for `Cc1cc(Nc2ccc(C(=O)NCc3ccco3)cc2)n2nc(-c3cccnc3)nc2n1` was 34.1 µM. Turning to `Cn1c(=O)sc2cc(NC(=O)c3ccc(Br)cc3)ccc21`, the IC50 was 1.8 µM. The same measure for `Cc1oc(-c2ccc(C(=O)NCC3COCCO3)cc2)nc1CN1CCc2ccccc21` (configuration not stated): > 50 µM (inactive); for `O=C(NCc1nc(-c2ccc3c(c2)[nH]c(=O)n3C2CCCC2)no1)c1ccccc1`: > 5 µM (inactive); for `Cc1cc(C#N)c2c(C)ccc(C(C)C)cc1-2`: > 50 µM (inactive). The value for `O=c1sc2ccccc2c(=O)n1Cc1cccc(C(F)(F)F)c1` was > 50 µM (inactive); that for `N#Cc1c(-c2cccs2)cc(-c2cccs2)[nH]c1=O` was > 50 µM (inactive).

With `CC(C)(C)c1cc(CCC(=O)Nc2c3c(nc4c2CCC4)CCCC3)cc(C(C)(C)C)c1O`, the IC50 is > 50 µM (inactive). The value for `COc1ccccc1-c1ccc(CN2[C@@H](c3ccccc3)C[C@@H]3NC(=O)CCC[C@H]32)cc1` was > 50 µM (inactive); that for `O=C(Nc1ccc2c(c1)OCCO2)Nc1nnc(CC(=O)N2CCCCC2)s1` was > 50 µM (inactive). Take `CC(C)c1ccc(C(C(=O)NC2CCCCC2)N(C(=O)c2cnccn2)c2cccc(F)c2)cc1` (configuration not stated): the concentration for half-maximal inhibition (IC50) is 27.2 µM. As for `N#Cc1c(Cl)cccc1Oc1ccc(S(=O)(=O)N2CCC(O)CC2)cc1`, the IC50 is 27.4 µM. The value for `Fc1ccc(Cc2nc(-c3ccc4nncn4c3)no2)cc1` was > 50 µM (inactive).
